Reference: publication PMC10511417, “Salmonid polysialyltransferases to generate a variety of sialic acid polymers” (Scientific Reports, 2023)

Tested on: T1, CmaST8Sia IV (CmaΔ28ST8Sia IV; fish ST8Sia IV)
T1 construct: gene st8sia4; soluble Δ28 form lacking the first 28 residues (cytoplasmic tail and transmembrane domain), N-terminal 3xFLAG (p3×FLAG-CMV9), secreted by HEK293 cells; crude culture medium; ~52 kDa N-glycosylated; cDNA cloned from C. maraena with 1074 bp amplicon; printed XM_041897387 is Coregonus clupeaformis homologue
Assay: MicroPlate Sialyltransferase Assay (click biotinylation, anti-biotin-HRP), Michaelis-Menten fit
Format: biochemical, Coregonus maraena
Settings: acceptor CD166/ALCAM 400 ng; cacodylate buffer pH 6.4, 27 °C, 4 h; 0-100 µM donor; crude culture medium as enzyme; read-out: apparent Km

## C#CCCC(=O)N[C@H]1[C@H]([C@H](O)[C@H](O)CO)OC(OP(=O)(O)OC[C@H]2O[C@@H](n3ccc(N)nc3=O)[C@H](O)[C@@H]2O)(C(=O)O)C[C@@H]1O (stereo partly shown) [CMP-SiaNAl]
  Km: 17.6 ± 2.52 µM
